Test system: S. cerevisiae BY4741 cells
Assay: In vivo reduction of 3-methyl-2-butenol or 3-methyl-3-butenol to 3-methyl-butanol by yeast
Type: cell-based, Saccharomyces cerevisiae
Conditions: 1 g/l substrate added after 48 hours, grown an additional 2 days; versus no substrate or 3-methyl-3-butenol; FIG. 3
Method: To test the capability of yeast to catalyze the conversion of 3-methyl-2-butenol to isopentanol, 5 ml. of YPD medium with 2% glycerol, in a 100 ml culture tube, was inoculated with an overnight culture of freshly plated S. cerevisiae BY4741 cells to achieve a final absorbance of 0.5 at 600 nm (A600). The cultures were grown at 30° C. at 200 r.p.m. After 48 hours, either 3-methyl-2-butenol or 3-methyl-3-butenol (1 g/l) was added to the culture.
Cultures were sampled after addition of 3-methyl-2-butenol or 3-methyl-3-butenol and grown for an additional 2 days. The samples were collected by pelleting 1 ml of culture, and adding 150 μl of the supernatant to 750 μl of the extraction solvent (80:20 chloroform:methanol spiked with 50 mg l^−1 of butanol internal standard). The samples were vortexed for 15 minutes and centrifuged for 2 minutes at 5000 r.c.f. 450 μl of the organic layer was removed from each sample and transferred to a clean GC vial for analysis. The GC-MS data were collected in full-scan mode (m/z 50-300) using a Tr-Wax column (0.25 mm×30 m, 0.25 μm film thickness; Thermo Electron) on a PolarisQ GC-MS with TriPlusautosampler (Thermo Electron). The carrier flow was 1.2 ml min^−1, and the inlet temperature was set to 200° C. The oven program was as follows: 40° C. […] Samples were normalized using the butanol internal standard and quantified using authentic standards.

SMILES: CC(C)=CCO [3-methyl-2-butenol, 3-methyl-2-buten-1-ol]
- isopentanol production by yeast grown in the presence of the alcohol substrate: significantly more isopentanol

— patent US7985567B2, “Host cells and methods for producing 3-methyl-2-buten-1-ol, 3-methyl-3-buten-1-ol, and 3-methyl-butan-1-ol” (The Regents of the University of California, priority 2007, dated 2011)
